# Test results from patent US20240374552A1, “Compositions and Methods for Preventing or Reducing the Risk of Metabolic Syndrome” (priority 2021, published 2024).
# Tested on: High-Fat Diet (HFD) induced obesity model
# Experiment: Effectiveness on metabolic syndrome risk factors, high-fat diet-induced obesity model
# Conditions: for Body mass index / Cholesterol (%) / Fat free mass / Fat mass / Food consumption (%) / Glucose (%) / Triglycerides (%) / Weight loss (%): reduction, negative = increase
# [1] = ED4: HFD, 0.001 mg/Kg daily 2 weeks
# [2] = ED5: Normal diet, 0.001 mg/Kg daily 2 weeks
# [3] = ED6: HFD, 0.0175 mg/Kg daily 2 weeks
# [4] = ED7: Normal diet, 0.0175 mg/Kg daily 2 weeks
# [5] = ED8: HFD, 0.175 mg/Kg daily 2 weeks
# [6] = ED9: Normal diet, 0.175 mg/Kg daily 2 weeks
# [7] = ED10: HFD, 0.18 mg/Kg daily 2 weeks
# [8] = ED11: Normal diet, 0.18 mg/Kg daily 2 weeks
# [9] = ED12: HFD, 0.1999 mg/Kg daily 2 weeks
# [10] = ED13: Normal diet, 0.1999 mg/Kg daily 2 weeks
# [11] = EH4: HFD, 0.20 mg/Kg daily 2 weeks, purity min 95%
# [12] = EH5: Normal diet, 0.20 mg/Kg daily 2 weeks, purity min 95%
# [13] = EH6: HFD, 0.76 mg/Kg daily 2 weeks, purity min 95%
# [14] = EH7: Normal diet, 0.76 mg/Kg daily 2 weeks, purity min 95%
# [15] = EH8: HFD, 1.75 mg/Kg daily 2 weeks, purity min 95%
# [16] = EH9: Normal diet, 1.75 mg/Kg daily 2 weeks, purity min 95%
# [17] = EH10: HFD, 5.50 mg/Kg daily 2 weeks, purity min 95%
# [18] = EH11: Normal diet, 5.50 mg/Kg daily 2 weeks, purity min 95%
# [19] = EH12: HFD, 25.00 mg/Kg daily 2 weeks, purity min 95%
# [20] = EH13: Normal diet, 25.00 mg/Kg daily 2 weeks, purity min 95%
# [21] = EH14: HFD, 55.50 mg/Kg daily 2 weeks, purity min 95%
# [22] = EH15: Normal diet, 55.50 mg/Kg daily 2 weeks, purity min 95%
# [23] = doses 0.001 mg/Kg to about 0.1999 mg/Kg
# [24] = doses 0.20 mg/Kg to about 1.75 mg/Kg
# Text: Animal studies in high-fat diet-induced obesity model in a total 75 male C57BL/6/CIEABR mice 6 to 7 weeks of age.
# The test system is based on the High-Fat Diet (HFD) induced obesity model.
# During the quarantine period (10 days), all animals were given rodent food “PicoLab Mouse Diet 5058” food, later, they were given high fat food “Tso's High Fat Diet With Butter Fat” or “PicoLab Mouse Diet 5058” food, according to the assignment of the type of diet and treatment that each animal should consume (See table 3 and table 4).
# At the end of the induction period, the administration of the different treatments began. The test product, vehicle, and controls were administered daily for two weeks. Administration was orally using curved stainless steel gastric tubes (18 G×1.5) previously sanitized; administration was performed at 11:00±1 h.
# For each treatment, different parameters were quantified to determine their decrease regarding the treatment applied to each group: weight loss (%), feed consumption (%), fat free mass (g), fat mass (g), body mass index, glucose (%), cholesterol (%) and triglycerides (%).
smiles,measurement,setting,value
"CC(C)(C)c1cc(C=C(C#N)C#N)cc(C(C)(C)C)c1O [tyrphostin AG17, Tyrphostin AG17]",Body mass index,[1],1.04
same,Cholesterol (%),[1],−0.03%
same,Fat free mass,[1],-2.69 g
same,Fat mass,[1],-0.54 g
same,Food consumption (%),[1],−4.21%
same,Glucose (%),[1],0.75%
same,Triglycerides (%),[1],4.35%
same,Weight loss (%),[1],3.17%
same,Body mass index,[2],1.69
same,Cholesterol (%),[2],0.10%
same,Fat free mass,[2],-4.02 g
same,Fat mass,[2],1.28 g
same,Food consumption (%),[2],1.05%
same,Glucose (%),[2],1.33%
same,Triglycerides (%),[2],7.83%
same,Weight loss (%),[2],4.01%
same,Body mass index,[3],2.03
same,Cholesterol (%),[3],0.04%
same,Fat free mass,[3],1.22 g
same,Fat mass,[3],-0.31 g
same,Food consumption (%),[3],13.04%
same,Glucose (%),[3],0.92%
same,Triglycerides (%),[3],17.39%
same,Weight loss (%),[3],6.19%
same,Body mass index,[4],2.73
same,Cholesterol (%),[4],0.44%
same,Fat free mass,[4],3.21 g
same,Fat mass,[4],2.59 g
same,Food consumption (%),[4],17.39%
same,Glucose (%),[4],1.24%
same,Triglycerides (%),[4],20.00%
same,Weight loss (%),[4],8.40%
same,Body mass index,[5],4.41
same,Cholesterol (%),[5],0.65%
same,Fat free mass,[5],2.34 g
same,Fat mass,[5],1.28 g
same,Food consumption (%),[5],25.00%
same,Glucose (%),[5],1.36%
same,Triglycerides (%),[5],24.35%
same,Weight loss (%),[5],17.16%
same,Body mass index,[6],4.30
same,Cholesterol (%),[6],1.30%
same,Fat free mass,[6],3.98 g
same,Fat mass,[6],3.56 g
same,Food consumption (%),[6],20.83%
same,Glucose (%),[6],1.93%
same,Triglycerides (%),[6],25.22%
same,Weight loss (%),[6],22.13%
same,Body mass index,[7],3.30
same,Cholesterol (%),[7],1.10%
same,Fat free mass,[7],3.32 g
same,Fat mass,[7],-0.10 g
same,Food consumption (%),[7],21.74%
same,Glucose (%),[7],1.49%
same,Triglycerides (%),[7],32.17%
same,Weight loss (%),[7],16.56%
same,Body mass index,[8],4.22
same,Cholesterol (%),[8],1.27%
same,Fat free mass,[8],5.11 g
same,Fat mass,[8],4.92 g
same,Food consumption (%),[8],22.92%
same,Glucose (%),[8],2.31%
same,Triglycerides (%),[8],29.57%
same,Weight loss (%),[8],20.88%
same,Body mass index,[9],3.35
same,Cholesterol (%),[9],0.94%
same,Fat free mass,[9],3.41 g
same,Fat mass,[9],0.36 g
same,Food consumption (%),[9],22.27%
same,Glucose (%),[9],1.40%
same,Triglycerides (%),[9],30.54%
same,Weight loss (%),[9],16.24%
same,Body mass index,[10],3.91
same,Cholesterol (%),[10],2.44%
same,Fat free mass,[10],5.39 g
same,Fat mass,[10],6.02 g
same,Food consumption (%),[10],23.11%
same,Glucose (%),[10],2.11%
same,Triglycerides (%),[10],30.43%
same,Weight loss (%),[10],18.21%
same,Body mass index,[11],3.34
same,Cholesterol (%),[11],1.13%
same,Fat free mass,[11],3.44 g
same,Fat mass,[11],0.39 g
same,Food consumption (%),[11],18.18%
same,Glucose (%),[11],1.43%
same,Triglycerides (%),[11],31.02%
same,Weight loss (%),[11],20.88%
same,Body mass index,[12],4.05
same,Cholesterol (%),[12],2.48%
same,Fat free mass,[12],4.92 g
same,Fat mass,[12],5.99 g
same,Food consumption (%),[12],22.07%
same,Glucose (%),[12],2.15%
same,Triglycerides (%),[12],30.75%
same,Weight loss (%),[12],20.97%
same,Body mass index,[13],2.23
same,Cholesterol (%),[13],1.49%
same,Fat free mass,[13],2.39 g
same,Fat mass,[13],1.21 g
same,Food consumption (%),[13],23.81%
same,Glucose (%),[13],2.05%
same,Triglycerides (%),[13],33.12%
same,Weight loss (%),[13],14.92%
same,Body mass index,[14],3.43
same,Cholesterol (%),[14],3.38%
same,Fat free mass,[14],3.94 g
same,Fat mass,[14],7.52 g
same,Food consumption (%),[14],30.10%
same,Glucose (%),[14],2.04%
same,Triglycerides (%),[14],31.74%
same,Weight loss (%),[14],17.21%
same,Body mass index,[15],2.50
same,Cholesterol (%),[15],2.02%
same,Fat free mass,[15],-0.12 g
same,Fat mass,[15],1.05 g
same,Food consumption (%),[15],33.11%
same,Glucose (%),[15],2.19%
same,Triglycerides (%),[15],33.45%
same,Weight loss (%),[15],18.14%
same,Body mass index,[16],3.40
same,Cholesterol (%),[16],3.43%
same,Fat free mass,[16],1.04 g
same,Fat mass,[16],6.98 g
same,Food consumption (%),[16],35.18%
same,Glucose (%),[16],2.43%
same,Triglycerides (%),[16],32.42%
same,Weight loss (%),[16],13.88%
same,Body mass index,[17],3.30
same,Cholesterol (%),[17],2.36%
same,Fat free mass,[17],-0.04 g
same,Fat mass,[17],1.28 g
same,Food consumption (%),[17],38.09%
same,Glucose (%),[17],3.11%
same,Triglycerides (%),[17],34.17%
same,Weight loss (%),[17],7.83%
same,Body mass index,[18],4.22
same,Cholesterol (%),[18],3.44%
same,Fat free mass,[18],0.42 g
same,Fat mass,[18],5.41 g
same,Food consumption (%),[18],47.82%
same,Glucose (%),[18],2.03%
same,Triglycerides (%),[18],32.56%
same,Weight loss (%),[18],8.87%
same,Body mass index,[19],3.35
same,Cholesterol (%),[19],2.49%
same,Fat free mass,[19],-0.13 g
same,Fat mass,[19],1.20 g
same,Food consumption (%),[19],37.27%
same,Glucose (%),[19],4.20%
same,Triglycerides (%),[19],37.21%
same,Weight loss (%),[19],9.27%
same,Body mass index,[20],3.91
same,Cholesterol (%),[20],3.45%
same,Fat free mass,[20],-0.10 g
same,Fat mass,[20],5.58 g
same,Food consumption (%),[20],40.91%
same,Glucose (%),[20],2.10%
same,Triglycerides (%),[20],32.45%
same,Weight loss (%),[20],7.30%
same,Body mass index,[21],2.54
same,Cholesterol (%),[21],2.33%
same,Fat free mass,[21],-0.12 g
same,Fat mass,[21],1.06 g
same,Food consumption (%),[21],33.12%
same,Glucose (%),[21],4.38%
same,Triglycerides (%),[21],37.84%
same,Weight loss (%),[21],3.49%
same,Body mass index,[22],2.99
same,Cholesterol (%),[22],3.58%
same,Fat free mass,[22],-0.09 g
same,Fat mass,[22],5.01 g
same,Food consumption (%),[22],41.37%
same,Glucose (%),[22],1.91%
same,Triglycerides (%),[22],33.32%
same,Weight loss (%),[22],4.44%
same,Concentration of triglycerides,[23],considerable decrease
same,Levels of HDL and glucose,[23],maintaining the levels of HDL and glucose
same,Liver damage or toxic effects,[23],low presence of liver damage or toxic effects
same,Weight,[23],considerable decrease
same,Concentration of triglycerides,[24],decrease
same,Glucose levels,[24],maintained
same,HDL levels,[24],reduced
same,Weight,[24],decrease
same,Effect on the liver and toxic effects,"doses 0.20 mg/Kg to about 1.75 mg/Kg, high purity tyrphostin",reduced the effect on the hepatic liver as well as the toxic effects
